Data on two substances can be found in US9006191B2, “Silencing of polo-like kinase expression using interfering RNA” (Protiva Biotherapeutics, Inc., priority 2007, dated 2015).

“And” between values parts separate entries of the source, which are not always exact repeats. Equal values may be shown once.

Data set [1] deals with human PLK-1 mRNA. As to the kind of experiment: 5′ RACE-PCR in HT29 cells. The data set is classed as cell-based. The note with it: 10 nM, 24 h. How it is done: (A) HT29 cells were treated with 10 nM SNALP-formulated PLK1424, Luc siRNA or PBS. RNA was isolated 24 hours after transfection and assayed for the specific PLK-1 mRNA cleavage product by 5′-RACE-PCR. (B) Neuro2a cells were treated with SNALP-formulated KSP2263, PLK773 siRNA or PBS. RNA was isolated 24 hours after transfection and assayed for the specific mouse KSP mRNA cleavage product by 5′-RACE-PCR.
The detection of specific RNA cleavage products generated by RISC-mediated hydrolysis of target mRNA is the definitive marker confirming RNAi as the mechanism of gene silencing (39, 40). Activated RISC cleaves target mRNA precisely between the nucleotides complementary to positions 10 and 11 of the siRNA AS strand generating an mRNA cleavage product that is unique to the siRNA sequence. This can be detected in cells using an appropriately designed 5′-rapid amplification of cDNA ends-PCR method (RACE-PCR). We developed RACE-PCR assays to detect the PLK1424-specific cleavage product of human PLK-1 mRNA and the KSP2263-specific cleavage product of mouse KSP mRNA.
5′ RNA Ligase Mediated Rapid Amplification of cDNA ends (5′ RLM RACE).

Data set [2] deals with human PLK-1 mRNA. As to the kind of experiment: PLK-1 mRNA in Hep3B tumors (QuantiGene bDNA assay). The class given is in vivo. The note with it: hepatic Hep3B tumors, single 2 mg/kg IV, 24 h. How it is done:
The objectives of this study were as follows: • 1. To determine the level of mRNA silencing in established Hep3B liver tumors following a single IV administration of PLK1424 SNALP. • 2. To confirm the mechanism of mRNA silencing by detecting specific RNA cleavage products using RACE-PCR. • 3. To confirm induction of tumor cell apoptosis by histopathology.
A comparison of the effect of PEG-cDMA and PEG-cDSA 1:57 SNALPs on PLK-1 mRNA silencing was performed using established intrahepatic Hep3B tumors in scid/beige mice. A single 2 mg/kg dose of PLK-1 SNALP containing either PEG-cDMA or PEG-cDSA was administered intravenously. Liver/tumor samples were collected at 24 and 96 hours after SNALP treatment. Control=2 mg/kg Luc-cDMA SNALP at 24 hours.
Measurement of human PLK-1 and GAPDH mRNA in tumor tissues. […] Human PLK-1 and GAPDH mRNA were measured in tumor lystes by the QuantiGene bDNA assay (Panomics) as per the manufacturer's instructions (Quantigene 1.0 Manual). […] Data were expressed as mean PLK-1:GAPDH ratio+/−SD of individual animals. Tumor burden was assessed by homogenizing the complete liver from tumor bearing mice and measuring the total hGAPDH signal (RLU's) within the liver. Values were expressed as hGAPDH RLU/mg total liver.
Subcutaneous tumor models. […] The extent of PLK-1 mRNA knockdown was determined in the Hep3B tumors about 24 hours after SNALP administration.

The test system of data set [3] is IFIT1 mRNA, serum IFNα. The note with it: mouse, in vivo, iv.
Data set [4] deals with IFN-α, IFIT1 mRNA. As to the kind of experiment: In vivo immune stimulation assay in CD1 ICR mice (plasma IFN-α, IFIT1 mRNA). Also on record: species or system mouse. The note with it: 1:57 PEG-cDMA SNALP, 3 mg/kg IV, 4 h. How it is done:
In vivo immune stimulation assays. Animal studies were performed to test for the immunostimulatory activity of SNALP containing 2′OMe-modified PLK1424 siRNAs. Six-week-old female CD1 ICR mice were used in this study. […] The tolerability of the treatment regime was monitored by animal appearance and behavior.

The test system of data set [5] is IFIT1 mRNA, serum IFNα. As to the kind of experiment: In vivo immune stimulation assay in Balb/c mice (IFIT1 mRNA, serum IFNα). The note with it: SNALP-formulated siRNA IV, 4 h.
Data set [6] has as its system anti-PEG-lipid IgG and IgM antibodies. As to the kind of experiment: In vivo PEG-lipid antibody induction assay. Also on record: species or system mouse. The note with it: CD1 ICR mice, 1:57 SNALP IV at Days 0, 7, 14; plasma Days 7, 14, 21. How it is done:
In vivo PEG-lipid antibody induction assays. Animal studies were performed to test for the induction of an antibody response to 2′OMe-modified PLK1424 siRNAs that were encapsulated in a 1:57 SNALP formulation containing the lipid conjugate PEG-cDMA. Six-week-old female CD1 ICR mice were used in this study. […] Mice were then sacrificed on Day 21. The tolerability of the treatment regime was monitored by animal appearance, behavior, and body weight. Anti-PEG-lipid IgG and IgM antibodies in plasma at Days 7, 14, and 21 were measured by ELISA.

Data set [7] is described as follows: SNALP particle size and polydispersity. The class given is physicochemical.
Data set [8] has as its system Hep3B cells. The note with it: SNALP-formulated siRNA, 72 h.
Protocol: Cell Viability Assay: Cell viability of in vitro cell cultures was assessed using the commercial reagent CellTiter-Blue® (Promega Corp.; Madison, Wis.), a resazurin dye that is reduced by metabolically active cells to the fluorogenic product resorufin. Various cancer cell lines were cultured in vitro using standard tissue culture techniques. 48-72 hours after treatment with siRNA formulations and/or chemotherapy drugs, the CellTiter-Blue® reagent was added to the culture to quantify the metabolic activity of the cells, which is a measure of cell viability.
Cell Cultures. The cell lines Hep3B, HepG2, HT29, LS174T, and Neuro2a cells were obtained from the American Type Culture Collection (ATCC; Manassas, Va.) and cultured in the recommended basal media with 10% heat inactivated FBS and 1% penicillin-streptomycin. […] For in vitro siRNA activity assays, cell lines were cultured in 96 well plates in the presence of SNALP formulated siRNA. Cell viability was assessed after 72 h using the resazurin dye CellTiter Blue (Promega Corp).

Regarding “PLK1424-2/A: 2′OMe-modified PLK1424 duplex, SEQ ID NO:214/215 (same SEQ IDs as PLK1424 1/3 of Table 11) (chain 1 AGANCACCCNCCUNAAANAUU; chain 2 UAUUUAANGAGGGUGANCUUU; siRNA; 2'-O-methyl modifications at selected positions, key for n not given here)”, in data set [1], the “PLK-1 mRNA cleavage product by 5′ RACE-PCR” value was “generated the predicted 476 bp 5′ RACE-PCR product”. In data set [2], the “tumor hPLK-1 mRNA, % of levels in PBS-treated mice” value was found to be 45%. In addition, the “serum IFNα / serum cytokine response” value in data set [3] was “no measurable IFNα”. Moreover, the “IFIT1 induction (QG analysis)” value in data set [4] is “no significant IFIT1 induction above that of empty SNALP”. Moreover, the “IFIT1 mRNA induction in liver and spleen” value in data set [5] is “no measurable IFNα or increase in IFIT1 mRNA in the liver or spleen”. Moreover, in data set [6], the “IgG / IgM antibody response against PEG-lipid (PEG-cDMA)” value is on record as “substantially less immunogenic than SNALP containing the corresponding unmodified PLK1424 siRNA sequence”.

As for “PLK1424: siRNA to human PLK-1, SEQ ID NO:1/2 (UU overhang form 211/212) (chain 1 AGAUCACCCUCCUUAAAUA; chain 2 UAUUUAAGGAGGGUGAUCU; further chemistry not given here)”, in data set [7], the “mean SNALP particle size” value is 83 nm and 72 nm. For the same substance, the “cell viability / anti-proliferative activity” value in data set [8] is listed as “potent activity”.
